Measured values from ChEMBL document CHEMBL5126611, “Design, Synthesis, and Biological Evaluations of Pyridyl 4,5,6,7-Tetrahydro-4,7-Methanobenzo[d]isoxazoles as Potent and Selective Inhibitors of 11β-Hydroxylase” (J Med Chem, 2022).
In brackets after ≈: the same amount, converted by molar mass.

What was measured:
[1] = target: T1, Steroid 17-alpha-hydroxylase/17,20 lyase (Homo sapiens, UniProt P05093); test: Inhibition of human CYP17 expressed in Escherichia coli; format: ADME
T1 sequence (P05093 whole entry): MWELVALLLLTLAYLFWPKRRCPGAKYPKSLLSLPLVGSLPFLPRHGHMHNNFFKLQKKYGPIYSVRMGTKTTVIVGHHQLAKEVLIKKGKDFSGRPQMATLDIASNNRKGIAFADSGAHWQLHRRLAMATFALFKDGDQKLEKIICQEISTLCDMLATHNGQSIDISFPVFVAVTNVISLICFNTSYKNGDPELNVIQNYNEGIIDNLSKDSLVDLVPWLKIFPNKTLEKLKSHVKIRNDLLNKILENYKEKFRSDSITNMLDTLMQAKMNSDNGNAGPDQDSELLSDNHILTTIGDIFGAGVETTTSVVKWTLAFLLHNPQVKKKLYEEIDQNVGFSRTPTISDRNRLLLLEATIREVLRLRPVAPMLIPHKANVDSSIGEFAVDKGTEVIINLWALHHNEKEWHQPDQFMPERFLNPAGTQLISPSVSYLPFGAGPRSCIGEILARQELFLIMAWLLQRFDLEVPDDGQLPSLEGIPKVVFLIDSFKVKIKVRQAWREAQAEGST

Cytochrome P450 2D6 = Cytochrome P450 2D6 (Homo sapiens, UniProt P10635); test: Inhibition of human hepatic recombinant CYP2D6 using cocktail of substrate by LC-MS/MS analysis; format: ADME
Cytochrome P450 3A4 = Cytochrome P450 3A4 (Homo sapiens, UniProt P08684); test: Inhibition of human hepatic recombinant CYP3A using cocktail of substrate by LC-MS/MS analysis; format: ADME
[2] = Aqueous solubility of compound; format: physicochemical; settings: buffer
[3] = Cytotoxicity against Chinese hamster V79 cells assessed as reduction in cell viability; format: toxicity, cell-based, Cricetulus griseus; settings: read-out: LC50 (the source's name)
[4] = Cmax in Sprague-Dawley rat at 25 mg/kg, po measured up to 24 hrs by LC-MS analysis; format: ADME, organism-based; set-up: dose 25 mg/kg, time < 24 hrs, route po; settings: in vivo
[5] = Tmax in Sprague-Dawley rat at 25 mg/kg, po measured up to 24 hrs by LC-MS analysis; format: ADME, organism-based; settings: in vivo
[6] = AUC (0 to infinity) in Sprague-Dawley rat at 5 mg/kg, iv measured up to 24 hrs by LC-MS analysis; format: ADME, organism-based; set-up: time < 24 hrs, dose 5 mg/kg, route iv; settings: in vivo
[7] = Terminal half life in Sprague-Dawley rat at 5 mg/kg, iv measured up to 24 hrs by LC-MS analysis; format: ADME, organism-based; settings: in vivo, read-out: beta t1/2 (converted)
[8] = Clearance in Sprague-Dawley rat at 5 mg/kg, iv measured up to 24 hrs by LC-MS analysis; format: ADME, organism-based; settings: in vivo
[9] = Bioavailability in Sprague-Dawley rat at 5 mg/kg, iv measured up to 24 hrs by LC-MS analysis; format: ADME, organism-based; settings: in vivo
[10] = target: T2, Cytochrome P450 11B1, mitochondrial (Rattus norvegicus, UniProt P15393); test: Inhibition of rat CYP11B1; format: ADME
T2 sequence (P15393 whole entry): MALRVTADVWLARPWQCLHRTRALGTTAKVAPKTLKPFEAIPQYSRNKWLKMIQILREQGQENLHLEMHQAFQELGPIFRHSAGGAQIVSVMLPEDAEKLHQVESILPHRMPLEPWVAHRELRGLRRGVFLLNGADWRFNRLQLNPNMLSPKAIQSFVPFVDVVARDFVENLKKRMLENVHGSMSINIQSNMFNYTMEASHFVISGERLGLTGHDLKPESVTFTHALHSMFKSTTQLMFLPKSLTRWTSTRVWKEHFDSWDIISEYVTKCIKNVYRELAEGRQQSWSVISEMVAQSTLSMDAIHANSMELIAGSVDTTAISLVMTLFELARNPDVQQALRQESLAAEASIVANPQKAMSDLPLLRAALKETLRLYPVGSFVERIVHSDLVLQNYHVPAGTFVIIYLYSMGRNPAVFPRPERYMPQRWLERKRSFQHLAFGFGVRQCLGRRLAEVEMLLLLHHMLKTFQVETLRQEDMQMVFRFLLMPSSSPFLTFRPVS

Cytochrome P450 2D6, sequence (P10635 whole entry): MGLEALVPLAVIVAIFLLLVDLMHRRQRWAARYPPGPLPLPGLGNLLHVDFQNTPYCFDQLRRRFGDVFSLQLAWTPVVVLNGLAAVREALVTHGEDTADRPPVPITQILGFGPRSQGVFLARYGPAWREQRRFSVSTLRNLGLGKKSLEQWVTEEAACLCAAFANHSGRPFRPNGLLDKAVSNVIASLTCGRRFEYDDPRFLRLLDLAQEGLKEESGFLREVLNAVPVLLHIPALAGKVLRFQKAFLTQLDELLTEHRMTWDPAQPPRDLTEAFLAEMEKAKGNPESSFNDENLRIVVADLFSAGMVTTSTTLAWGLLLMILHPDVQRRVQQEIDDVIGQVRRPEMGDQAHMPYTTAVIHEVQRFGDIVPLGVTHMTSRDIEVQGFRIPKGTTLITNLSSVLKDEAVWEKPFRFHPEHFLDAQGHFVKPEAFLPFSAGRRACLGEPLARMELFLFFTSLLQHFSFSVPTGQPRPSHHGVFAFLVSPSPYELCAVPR
Cytochrome P450 3A4, sequence (P08684 whole entry): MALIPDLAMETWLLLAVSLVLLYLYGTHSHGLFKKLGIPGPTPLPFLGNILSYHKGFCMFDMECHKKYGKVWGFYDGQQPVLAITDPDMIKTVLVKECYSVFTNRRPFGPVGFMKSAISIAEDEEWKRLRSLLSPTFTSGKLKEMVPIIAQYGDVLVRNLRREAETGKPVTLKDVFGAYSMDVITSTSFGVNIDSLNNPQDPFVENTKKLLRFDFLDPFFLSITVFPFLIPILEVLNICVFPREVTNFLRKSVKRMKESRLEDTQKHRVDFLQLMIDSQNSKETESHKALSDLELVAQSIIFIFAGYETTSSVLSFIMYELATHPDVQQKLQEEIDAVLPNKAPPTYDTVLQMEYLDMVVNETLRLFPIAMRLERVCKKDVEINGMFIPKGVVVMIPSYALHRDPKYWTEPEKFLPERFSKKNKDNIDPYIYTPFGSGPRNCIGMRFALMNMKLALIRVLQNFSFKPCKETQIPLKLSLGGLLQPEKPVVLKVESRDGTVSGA

Q: For `O=C(Nc1ccc2[nH]ncc2c1)[C@]12ON=C(c3cccnc3)[C@H]1[C@@H]1CC[C@H]2C1`, which IC50 [1] is on record?
A: Its IC50 is greater than 10 µM.

Q: And the IC50 (Cytochrome P450 2D6)?
A: Its IC50 is greater than 10 µM.

Q: And the IC50 (Cytochrome P450 3A4)?
A: The IC50 was greater than 10 µM.

Q: And the solubility [2]?
A: The solubility was 196 µM (≈ 73.2 µg/mL).

Q: And the CC50 [3]?
A: Its CC50 is greater than 50 µM.

Q: What about the Cmax [4] of the same compound?
A: The Cmax was 7990 ng/mL.

Q: And the Tmax [5]?
A: The Tmax was 4.2 h.

Q: And the AUC [6]?
A: The AUC was 50928.7 ng·h/mL.

Q: And the half-life [7]?
A: The half-life was 4.5 h.

Q: What about the CL [8] of the same compound?
A: Its CL is 0.287 mL/min/kg.

Q: And the bioavailability [9]?
A: Its bioavailability is 21.4%.

Q: And the IC50 [10]?
A: Its IC50 is 0.025 µM.
